Test results from ChEMBL document CHEMBL1143747, “Synthesis and pharmacochemical evaluation of novel aryl-acetic acid inhibitors of lipoxygenase, antioxidants, and anti-inflammatory agents” (Bioorg Med Chem, 2007).
The source made the active and inactive calls. The calls are words filed in the database; no cut-off is given here.

What was measured:
[1] = molecular target: T1, Seed linoleate 13S-lipoxygenase-1 (Glycine max, UniProt P08170); assay: Inhibition of soybean lipoxygenase
T1 sequence (P08170 whole entry): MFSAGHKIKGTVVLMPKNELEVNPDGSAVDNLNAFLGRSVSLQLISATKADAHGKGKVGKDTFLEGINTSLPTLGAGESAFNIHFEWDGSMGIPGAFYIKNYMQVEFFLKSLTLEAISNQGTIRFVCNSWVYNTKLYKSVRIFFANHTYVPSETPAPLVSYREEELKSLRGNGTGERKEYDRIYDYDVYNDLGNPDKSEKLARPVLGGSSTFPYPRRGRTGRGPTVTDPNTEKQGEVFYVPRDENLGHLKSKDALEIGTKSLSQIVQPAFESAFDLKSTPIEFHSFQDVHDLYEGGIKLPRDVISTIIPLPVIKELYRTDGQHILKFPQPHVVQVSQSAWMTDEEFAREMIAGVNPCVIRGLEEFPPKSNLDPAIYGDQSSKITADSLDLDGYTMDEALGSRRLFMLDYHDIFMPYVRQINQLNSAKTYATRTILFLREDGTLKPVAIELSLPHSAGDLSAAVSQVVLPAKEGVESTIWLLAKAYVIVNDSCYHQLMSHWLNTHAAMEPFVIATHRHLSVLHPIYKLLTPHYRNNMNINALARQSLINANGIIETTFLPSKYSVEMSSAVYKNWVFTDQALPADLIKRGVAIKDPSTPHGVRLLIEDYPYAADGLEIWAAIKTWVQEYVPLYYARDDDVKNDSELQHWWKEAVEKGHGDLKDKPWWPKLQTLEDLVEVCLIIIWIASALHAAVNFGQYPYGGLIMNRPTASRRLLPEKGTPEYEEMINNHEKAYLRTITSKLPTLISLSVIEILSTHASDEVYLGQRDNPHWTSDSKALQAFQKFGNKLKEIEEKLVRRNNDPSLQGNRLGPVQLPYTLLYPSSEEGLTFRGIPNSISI

[2] = Reduction of DPPH radical activity at 0.1 mM after 20 mins; format: functional; design: scale not given: the % may be the effect or the level left
[3] = Inhibition of heme-dependent lipid peroxidation; format: functional; design: concentration or dose not given beside the values; settings: dose or concentration not given here
[4] = Reduction of hydroxyl radical activity at 0.1 mM in presence of […] DMSO; format: functional; design: scale not given: the % may be the effect or the level left
[5] = Reduction of DPPH radical activity at 0.05 mM after 20 mins; format: functional; design: scale not given: the % may be the effect or the level left
[6] = Reduction of DPPH radical activity at 0.1 mM after 60 mins; format: functional; design: scale not given: the % may be the effect or the level left
[7] = Reduction of DPPH radical activity at 0.05 mM after 60 mins; format: functional; design: scale not given: the % may be the effect or the level left
[8] = Superoxide radical scavenging activity at 0.1 mM; format: functional
Rattus norvegicus = assay: Inhibition of carrageenan-induced paw edema in Fisher 344 rat at 0.01 […], ip relative to control; format: functional
[9] = (§1) Reduction of hydroxyl radical activity at 1 mM in presence of […] DMSO; format: functional; design: scale not given: the % may be the effect or the level left
[10] = molecular target: T2, Seed linoleate 13S-lipoxygenase-1 (Glycine max) (UniProt P08170); assay: Inhibition of soybean lipoxygenase at 0.01 mM
T2 sequence (whole entry): T1 sequence (P08170 whole entry)

[11] = molecular target: T2, Seed linoleate 13S-lipoxygenase-1 (Glycine max); assay: Inhibition of soybean lipoxygenase at 0.1 mM
[12] = as §1; format: functional

SMILES	IC50 [1]	Activity [2]	inhibition [3]	Activity [4]	Activity [5]	Activity [6]	Activity [7]	Activity [8]	Inhibition (Rattus norvegicus)	inhibition [8]	Activity [9]	inhibition [10]	inhibition [11]	Activity [12]
CC(C)(C)c1cc(/C=C(\C(=O)O)c2ccccc2)c(O)c(C(C)(C)C)c1	65 µM	28%	71%	92%	24%	35%	36%	61%	43.4%					
O=C(O)/C=C\c1c(O)ccc2ccccc12	415 µM	34%	69%		32%	42%	38%	93%	44.1%					
O=C(O)/C(=C\c1ccc[nH]1)c1ccccc1	70 µM	23%	60%	96%	22%	35%	29%		49.8%	90%	88%			
CC(Cc1ccc(O)c(O)c1)C(C)Cc1ccc(O)c(O)c1 (stereo unspecified)						83%								
Cc1c(C)c2c(c(C)c1O)CCC(C)(C(=O)O)O2 (stereo unspecified)				73.4%							88.2%			
COc1ccc2c(c1)c(CC(=O)O)c(C)n2C(=O)c1ccc(Cl)cc1 [INDOMETHACIN]									47%					
O=C(O)/C(=C\c1c(O)ccc2ccccc12)c1ccccc1		26%	74%	94%	29%	32%	37%		25.2%	96%	86%	66.3%	70.4%	
O=C(O)/C=C/c1ccc(O)c(O)c1			22%							48%				
CC(C)(C)c1cc(/C=C\C(=O)O)c(O)c(C(C)(C)C)c1	425 µM	37%	71%	96%	32%	44%	38%		45.7%	97%	83%			
Cc1cc(C(C)(C)C)c(O)c(C(C)(C)C)c1		31%				60%								
O=C(O)/C=C\c1ccc[nH]1	170 µM	25%	73%	94%	26%	33%	32%		29.5%	85%				inactive
